According to article PMC2765508 (Biochemistry, 2009):
“Also recorded” adds a separate entry of the source.

How the values were obtained:
[1] = test system: insulysin; conditions: cited from earlier work
[2] = test system: protease III; conditions: cited from earlier work
[3] = test system: nardilysin; conditions: cited from earlier work
[4] = target: T1, human MP1 (Homo sapiens, UniProt Q5JRX3); assay type: biochemical; conditions: for kcat/Km: from kcat (HPLC) and Km (alternate substrate inhibition)
T1 sequence (Q5JRX3 29-1037): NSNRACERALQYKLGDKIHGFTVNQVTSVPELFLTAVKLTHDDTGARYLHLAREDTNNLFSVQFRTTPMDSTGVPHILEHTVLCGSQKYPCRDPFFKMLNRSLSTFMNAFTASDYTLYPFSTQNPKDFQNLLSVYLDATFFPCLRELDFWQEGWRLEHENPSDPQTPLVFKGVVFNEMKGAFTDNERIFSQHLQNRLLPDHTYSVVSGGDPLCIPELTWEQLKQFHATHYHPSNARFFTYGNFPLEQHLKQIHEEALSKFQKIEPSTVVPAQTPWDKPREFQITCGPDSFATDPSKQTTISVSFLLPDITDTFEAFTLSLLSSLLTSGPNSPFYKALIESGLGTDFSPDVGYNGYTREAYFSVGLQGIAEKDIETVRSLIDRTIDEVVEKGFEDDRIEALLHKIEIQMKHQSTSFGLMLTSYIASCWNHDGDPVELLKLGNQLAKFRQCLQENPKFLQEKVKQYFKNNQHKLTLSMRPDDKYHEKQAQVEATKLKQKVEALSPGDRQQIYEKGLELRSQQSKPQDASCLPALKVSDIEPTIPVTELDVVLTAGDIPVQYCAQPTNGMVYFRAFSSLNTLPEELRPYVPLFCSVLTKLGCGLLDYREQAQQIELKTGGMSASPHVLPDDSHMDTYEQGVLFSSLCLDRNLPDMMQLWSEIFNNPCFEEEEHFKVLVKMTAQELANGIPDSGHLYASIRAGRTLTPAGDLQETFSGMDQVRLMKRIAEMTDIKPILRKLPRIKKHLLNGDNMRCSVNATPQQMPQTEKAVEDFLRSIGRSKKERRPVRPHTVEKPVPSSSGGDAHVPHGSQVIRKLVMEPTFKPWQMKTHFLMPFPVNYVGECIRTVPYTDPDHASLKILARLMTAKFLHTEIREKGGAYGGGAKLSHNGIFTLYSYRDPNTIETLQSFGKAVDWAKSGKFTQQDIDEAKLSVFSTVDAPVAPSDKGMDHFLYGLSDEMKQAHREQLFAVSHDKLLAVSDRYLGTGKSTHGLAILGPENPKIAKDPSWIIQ

[5] = test system: MP1 (metallopeptidase 1, mammalian pitrilysin); test: purified recombinant human MP1
[6] = target: T1, human MP1; assay type: biochemical; conditions: 27 amino acid citrate synthase presequence peptide as MP1 substrate
[7] = test system: MP1; test: 2 μg of MP1 in 25 mM Tris buffer, pH 7.5; conditions: human

Row | Substance | kcat/Km [4] [M × min^−1 × 10^5] | cleaved bond [5] | further results
1 | Angiotensin I | 44.6 ± 4.3 | – | cleavage by insulysin [1]: not cleaved; cleavage by protease III [2]: not cleaved; cleavage by nardilysin [3]: not cleaved
2 | CGNLSTCMLGTYTQDFNKFHTFPQTAIGVGAP | – | C-M, first_seen; also recorded: G-T, first_seen; also recorded: K-F, minor | –
3 | CGNLSTC▼MLG▼TYTQDFNK↓FHTFPQTAIGVGAP [Calcitonin] | 15.4 ± 0.6 | – | –
4 | DAEFRHDSGYEVHHQKLVFF▼AEDVGSNKGAIIGL↓MVGGVV [β-Amyloid (1–40)] | 19.5 ± 1.1 | – | –
5 | Insulin | 0.03 ± 0.00 | – | –
6 | MALLTAAARLFGAKNASCLVLAARHAS-NH2 [citrate synthase presequence peptide] | – | – | Km [6]: 0.17 µM; kcat ([4]; 27 amino acid citrate synthase presequence peptide as MP1 substrate): 0.0183 s⁻¹
7 | RPKPQQFFGLM | – | F-F, minor; also recorded: G-L, first_seen | –
8 | RPKPQQF↓FG▼LM [Substance P] | 23.6 ± 2.5 | – | –
9 | RPPG▼FSPFR [Bradykinin] | 21.8 ± 1.2 | – | cleavage by insulysin [1]: not cleaved; cleavage by protease III [2]: not cleaved; cleavage by nardilysin [3]: not cleaved
10 | SLRRSSCFGGRMDRIGAQSGLGCNSFRY | – | D-R, first_seen; also recorded: S-F, first_seen | –
11 | SLRRSSCFGGRMD▼RIGAQSGLGCNS▼FRY (disulfide) [Atrial natriuretic peptide] | 199.2 ± 18.6 | – | –
12 | Somatostatin | 41.7 ± 3.8 | – | –
13 | YADAIFTNSYRKVLGQLSARKLQDIMQQGESNQERGA | – | Y-A, minor; also recorded: G-Q, first_seen; also recorded: S-A, first_seen | –
14 | YGGFL | – | Y-G, first_seen | –
15 | YGGFL [Leu-enkephalin] | 18.7 ± 2.1 | – | –
16 | YGGFLRRIRPKLKWDNQ | – | R-I, minor; also recorded: P-K, first_seen; also recorded: Y-G, minor | –
17 | YGGFLRRQFKVVT | – | Y-G, minor; also recorded: F-K, minor; also recorded: K-V, first_seen | –
18 | YGGFMTSEKSETPLVTLFKNAIIKNAYKKGE | – | – | cleaved bond [7]: Phe-M, minor; also recorded: Thr16-Leu17, minor; also recorded: Pro13-Leu14, minor; also recorded: Leu14-Val15, minor
19 | YGG↓F↓MTSEKSETPLV↓T↓L▼FKNA▼IIKNAYKKGE [β-endorphin] | 62.6 ± 5.1 | – | –
20 | Y↓ADAIFTNSYRKVLG▼QLS▼ARKL↓QDIMQQGESNQERGA [Growth Hormone Releasing factor] | 29.4 ± 3.4 | – | –
21 | Y↓GGFLRRQFK↓VVT↓RSQED▼PNAYYEEL▼FDV [Leumorphin (porcine), Leumorphin] | 63.5 ± 4.5 | – | –
22 | Y↓GGFLRRQF↓K▼VVT [Dynorphin B] | 46.3 ± 6.8 | – | –
23 | Y↓GGFLRR↓IRP▼KLKWDNQ [Dynorphin A] | 62.6 ± 6.8 | – | –
